# Data from US7498336B2, “Deazaflavin compounds and methods of use thereof” (The United States of America as represented by the …, priority 2003, dated 2009).
# “Also recorded” adds a separate entry of the source.
# Columns and labels:
# [1] = target: T1, Nedd4 (Homo sapiens, UniProt P46934); assay: In vitro ubiquitination assay (E1+E2+E3) with unrelated E3 ligase; format: biochemical; details: gel assay, FIG. 2B, 2C
# T1 construct: made in house
# T1 sequence (P46934 1-1319): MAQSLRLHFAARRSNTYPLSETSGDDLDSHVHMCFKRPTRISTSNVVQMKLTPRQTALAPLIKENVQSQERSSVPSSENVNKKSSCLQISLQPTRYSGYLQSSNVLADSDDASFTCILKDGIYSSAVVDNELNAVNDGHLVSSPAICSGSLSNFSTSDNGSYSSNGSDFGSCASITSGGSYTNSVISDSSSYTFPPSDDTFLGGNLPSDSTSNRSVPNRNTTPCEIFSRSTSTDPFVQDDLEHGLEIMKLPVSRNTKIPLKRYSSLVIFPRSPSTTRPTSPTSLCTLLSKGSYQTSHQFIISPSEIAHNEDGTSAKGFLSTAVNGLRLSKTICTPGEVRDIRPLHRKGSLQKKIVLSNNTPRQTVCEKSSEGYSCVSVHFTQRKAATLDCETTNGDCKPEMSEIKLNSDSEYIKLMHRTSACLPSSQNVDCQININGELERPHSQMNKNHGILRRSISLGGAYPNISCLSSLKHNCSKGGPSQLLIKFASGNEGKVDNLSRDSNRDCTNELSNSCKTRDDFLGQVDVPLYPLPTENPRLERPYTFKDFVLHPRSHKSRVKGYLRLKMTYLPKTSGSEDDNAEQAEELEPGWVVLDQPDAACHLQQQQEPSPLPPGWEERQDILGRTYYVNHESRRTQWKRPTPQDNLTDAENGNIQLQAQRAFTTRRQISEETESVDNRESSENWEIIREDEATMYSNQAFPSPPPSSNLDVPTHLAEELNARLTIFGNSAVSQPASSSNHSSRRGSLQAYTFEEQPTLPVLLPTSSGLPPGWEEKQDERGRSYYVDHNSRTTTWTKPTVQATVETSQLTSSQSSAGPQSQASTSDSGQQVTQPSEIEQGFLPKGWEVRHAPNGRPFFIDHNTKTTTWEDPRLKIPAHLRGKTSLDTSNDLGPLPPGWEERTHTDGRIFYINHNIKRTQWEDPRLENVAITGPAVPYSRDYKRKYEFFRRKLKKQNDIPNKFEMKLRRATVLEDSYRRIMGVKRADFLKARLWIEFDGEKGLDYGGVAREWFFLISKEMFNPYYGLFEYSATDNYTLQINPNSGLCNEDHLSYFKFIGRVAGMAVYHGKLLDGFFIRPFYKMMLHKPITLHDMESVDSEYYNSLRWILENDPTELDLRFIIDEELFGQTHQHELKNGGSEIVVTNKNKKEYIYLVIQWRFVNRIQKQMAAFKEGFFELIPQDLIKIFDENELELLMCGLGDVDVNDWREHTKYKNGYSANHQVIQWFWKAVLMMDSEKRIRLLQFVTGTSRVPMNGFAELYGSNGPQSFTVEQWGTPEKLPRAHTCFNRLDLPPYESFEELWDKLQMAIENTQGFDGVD
# Procedure: 1 pmole per experimental point of bacterially expressed GST-MDM2 (or GST-Nedd) was coupled to glutathione Sepharose (GS) for 30 minutes at room temperature with tumbling, followed by 3× wash with 50 mM Tris pH 7.5. Following this, 20 μl of 1× buffer was added (40 μl 10× reaction buffer*, 40 μl 10× PCK**, 320 μl dH2O). The test compound in DMSO is then added to the desired concentration with an equal volume of DMSO used as a control. Samples are incubated with shaking for 1 hr at 23° C. To carry out the reaction, a pre-made cocktail of Rabbit E1 (Calbiochem #6620700)/UbcH5B/^32P Ub cocktail (1 μl/0.5 μl/1 μl) is added followed by 15 minutes shaking at 30° C. The reaction is terminated by addition of 8 μl 4× reducing SDS-PAGE loading buffer. After dissociating proteins from the beads at 100° C. for 2 minutes, samples are resolved on 6% PAGE followed by exposure of the dried gel to phosphor screen. Note: ^32P Ub is derived from GST-Ub that has been engineered to include a PKA phosphorylation site. This fusion protein is purified on glutathione Sepharose, phosphorylated, following this, the ^32P Ub ubiquitin is cleaved and purified away from the thrombin.
# [2] = target: T2, GST-UbcH5B (Homo sapiens, UniProt P62837); assay: E1+E2 assay with immobilized E2 (thiol-ester linkage with E2); format: biochemical; details: FIG. 2E
# T2 construct: made in house
# T2 sequence (P62837 whole entry): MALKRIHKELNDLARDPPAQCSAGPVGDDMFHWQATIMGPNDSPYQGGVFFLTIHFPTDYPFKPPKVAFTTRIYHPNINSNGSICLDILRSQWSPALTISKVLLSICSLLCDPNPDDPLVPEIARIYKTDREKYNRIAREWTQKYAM
# Procedure: c. E1+E2 Assay with Immobilized E2
# 20 pmoles of bacterially-expressed GST-UbcH5B is bound to GS for 30 minutes at room temperature after washing in 50 mM Tris pH 7.5. Twenty (20) μl of 1× reaction buffer is added. After incubation with the test compound for 1 hour at 23° C. the beads were washed with 50 mM Tris pH 7.5. This was followed by addition of Rabbit E1/32P Ub cocktail (1 μl/1 μl) followed by incubation at 1 hour shaking at 23° C. This is followed by resolution by SDS-PAGE under non-reducing conditions and exposure as above.
smiles,measurement,setting,value
"O=c1nc2n(-c3cccc(Cl)c3)c3ccc([N+](=O)[O-])cc3cc-2c(=O)[nH]1 [Compound 98C07, 10-(-3-chloro-phenyl)-7-nitro-10H-pyrimido[4,5-b]quinoline-2,4-dione]",selectivity of inhibition of MDM2 versus unrelated E3 ligase Nedd4,[1],shows some selectivity as an inhibitor of MDM2; also recorded: specificity of MDM2
same,inhibition of thiol-ester linkage of ubiquitin with E2,[2],inhibits neither thiol-ester linkages of ubiquitin with E1 nor E2
